Results from patent US12421522B2, “Modulation of transgene expression in plants” (CORTEVA AGRISCIENCE LLC, priority 2016, dated 2025).

Tests used:
soybean tissues [1] = test: miRNA expression profiling of miR1512 and miR3522 in soybean tissues; settings: for relative expression level, 3 mm seed: soybean 3 mm seed; for relative expression level, Cotyledons: soybean cotyledons; for relative expression level, Embryo axis: soybean embryo axis; for relative expression level, Flower: soybean flower; for relative expression level, Pods from 5 mm seeds: soybean pods from 5 mm seeds; for relative expression level, Root tip: soybean root tip; for relative expression level, Seed coat: soybean seed coat; for relative expression level, Stem: soybean stem
Protocol: Small RNA Library Construction and Sequencing: Small RNA library construction was carried out using Illumina's TruSeq Small RNA sample preparation kit according to the manufacturer's recommendations. Briefly, RNA 3′ and RNA 5′ adapters were sequentially ligated onto 1 μg of high-quality purified Small RNA sample using truncated T4 RNA Ligase 2 and T4 RNA Ligase respectively. The small RNA fragments were then copied into first strand cDNA using SuperScript II reverse transcriptase. The cDNA was converted into double stranded cDNA (ds cDNA) with PCR using two primers that respectively anneal to the ends of 3′ and 5′ adapters. This process selectively enriches those fragments that have adapter molecules on both ends. The amplified cDNA construct is then purified on a 6% PAGE gel, normalized to 2 nM concentration, denatured with sodium hydroxide, and diluted in hybridization buffer for loading onto a Hiseq flow cell. Cluster generation, primer hybridization and sequencing reactions were carried out according to Illumina's recommended protocol.
Given the variation in expression among different soybean tissues, miR1512 and miR3522 recognition sites were selected to exemplify tissue-specific transgene expression modulation in a dicot plant.
Table 1. miRNA microarray expression profiling of miR1512 and miR3522 in soybean tissues. Numbers represent relative expression levels.

soybean tissues [2] = test: as above; settings: for relative expression level, 5 mm seed: soybean 5 mm seed; for relative expression level, Hypocotyl: soybean hypocotyl; for relative expression level, Leaf: soybean leaf; for relative expression level, Pod: soybean pod; for relative expression level, Root: soybean root

Substance	relative expression level, 3 mm seed (soybean tissues [1])	relative expression level, Cotyledons (soybean tissues [1])	relative expression level, Embryo axis (soybean tissues [1])	relative expression level, Flower (soybean tissues [1])	relative expression level, Pods from 5 mm seeds (soybean tissues [1])	relative expression level, Root tip (soybean tissues [1])	relative expression level, Seed coat (soybean tissues [1])	relative expression level, Stem (soybean tissues [1])	miRNA expression (in words) (soybean tissues [2]; all tissues examined except the root tissue)	relative expression level, 5 mm seed (soybean tissues [2])	relative expression level, Hypocotyl (soybean tissues [2])	relative expression level, Leaf (soybean tissues [2])	relative expression level, Pod (soybean tissues [2])	relative expression level, Root (soybean tissues [2])	miRNA expression (in words) (soybean tissues [2]; leaves and other vegetative tissue)	miRNA expression (in words) (soybean tissues [2]; root)	miRNA expression (in words) (soybean tissues [2]; seed and seed coat)
miR3522: endogenous soybean micro-RNA, exemplary miR3522 RNA UGAGACCAAAUGAGCAGCUGA (expressed or natural sequence)	8958	26265	3200	18509	1351	649	2551	3180	high or medium levels	30139	1310	15350	405	399			
miR1512: endogenous soybean micro-RNA, exemplary miR1512 RNA UAACUGAACAUUCUUAGAGCAU (expressed or natural sequence)	10427	70	20	79	23938	3118	13532	15		183	0	0	1854	0	very low expression	medium expression	high levels
